A short description of data set [1]: Comparison of absorption in rats after intragastric administration of free base and salt (plasma pharmacokinetics). The class given is in vivo, SD rats. The note with it: for AUC (0-t) and Cmax, comparison in words: rats, oral, same dose, free base and 6 salts. How it is done:
The blood sample was centrifuged at 8000 RPM for 5 minutes, followed by the isolation of the upper plasma. […] 200 μL of the supernatant was taken and centrifuged again for 10 minutes. 50 μL of the supernatant was injected in a 96-well plate. The plasma drug concentration was determined by LC/MS/MS, and the corresponding pharmacokinetic parameters were calculated.

The nature of data set [2]: Water solubility at 20° C. determined by HPLC. The class given is physicochemical.
Procedure: The solubility was determined as follows: a certain amount of the sample was weighed and the solvent was added thereto in portions with stirring or ultrasonication to accelerate dissolution; the amount of the consumed solvent was recorded once the sample was dissolved. […] A certain volume of the solution was taken, followed by filtration, concentration, dissolved with a certain volume of other suitable solvents and subjected to HPLC measurement to obtain accurate data of the solubility.
Data set [3] is described as follows: Solid-state stability test. It is filed as physicochemical. How it is done:
An appropriate amount of the drugs were placed in the surface dish, spread to a thickness of 3-5 mm, and exposed in high temperature, high temperature and high humidity, illumination and oxidation conditions for 10 days respectively, and the solid-state characterization was performed. The purity and the number of impurities 0.05%) of the samples for testing were determined by HPLC, and compared with the samples on day 0. The exposure conditions are:
High temperature (an oven with T=60° C.);
Illumination (25° C., a 4500±500 lx light incubator);
Oxidation (25° C., a closed container containing urea hydrogen peroxide).

The next data set can be described thus: Solution stability test. The class given is physicochemical. How it is done:
About 15 mg of the sample was weighed accurately, dissolved with 25 mL of the test solvent (10% aqueous acetone solution, pH=4.0 B-R buffer solution, SGF, SIF) via ultrasound for 20 minutes. The solution was divided into four portions and placed in the clear glass vials, followed by sealing. The samples were exposed in different environments and sampled on day 0 and day 5. The purity of each sample was determined by HPLC, and the number of impurities greater than 0.05% was calculated and compared with the samples on day 0. The exposure environments are:
Room temperature and light-proof test, 25° C.; […]
Illumination experiment (4500±500 lx), 25° C.;
Oxidation experiment (3% v/v hydrogen peroxide), 25° C.

Data set [4] in a line: Dynamic vapor sorption (DVS), isothermal absorption analysis. It is filed as physicochemical. The procedure:
In the present invention, according to the common knowledge in the art, the amount of water absorption obtained from the dynamic vapor sorption (DVS) pattern is expressed in percentage by weight.
The isothermal absorption analysis (DVS) data was collected from TA Instruments Q5000 TGA. The software for instrument control was Thermal Advantage and software for analysis was Universal Analysis. 1-10 mg of the sample was generally placed in a platinum crucible, and the weight change of the sample during the relative humidity changing from 20% to 80% was recorded by the TA software. Depending on the specifics of the sample, different steps of sample adsorption and desorption were also involved.

The mark [5] stands for this setting: SD rats, 20 μmol/kg, intragastric administration, plasma.
Where [6] appears, read: rat, po, 20 umol/kg, SD rats, intragastric administration, plasma.
The mark [7] stands for this setting: 10 d, High temperature (oven, T=60° C.).
[8] abbreviates: 10 d, High temperature and high humidity (40° C., 75% relative humidity).
[9] abbreviates: 10 d, Illumination (25° C., 4500±500 lx).
Where [10] appears, read: 10 d, Oxidation (25° C., closed container with urea hydrogen peroxide).
The mark [11] stands for this setting: 10% aqueous acetone solution, 5 d, High temperature.
Where [12] appears, read: 10% aqueous acetone solution, 5 d, High temperature and high humidity.
The mark [13] stands for this setting: 10% aqueous acetone solution, 5 d, Illumination (4500±500 lx, 25° C.).
[14] abbreviates: B-R Buffer solution (pH=4.0), 5 d, High temperature.
[15] abbreviates: B-R Buffer solution (pH=4.0), 5 d, High temperature and high humidity.
Where [16] appears, read: B-R Buffer solution (pH=4.0), 5 d, Illumination (4500±500 lx, 25° C.).
[17] abbreviates: B-R Buffer solution (pH=4.0), 5 d, Oxidation (3% v/v hydrogen peroxide, 25° C.).
Setting [18] is: SGF, 5 d, High temperature and high humidity.
[19] abbreviates: SGF, 5 d, Illumination (4500±500 lx, 25° C.).
Where [20] appears, read: SGF, 5 d, Oxidation (3% v/v hydrogen peroxide, 25° C.).
[21] abbreviates: SIF, 5 d, High temperature and high humidity.
Setting [22] is: SIF, 5 d, Illumination (4500±500 lx, 25° C.).
The mark [23] stands for this setting: SIF, 5 d, Oxidation (3% v/v hydrogen peroxide, 25° C.).
[24] abbreviates: relative humidity range of 50-80%.

SMILES strings stand for the structures. Read-outs that look alike come from different tables or passages of the source.

Take `C=C(F)C(=O)Nc1cc2c(Nc3ccc(F)c(Cl)c3)ncnc2cc1OCCCN1CCOCC1.O=C(O)[C@H](O)[C@@H](O)[C@H](O)[C@H](O)CO`: in data set [1] (setting [5]), the “AUC (0-t)” value is 484.40 ± 201.71 µM·min, the “MRT (0-T)” value came to 6.2613 ± 2.5515 h, the time of peak concentration (Tmax) was 1.333 ± 0.5773 h and the t1/2 worked out at 3.5572 ± 0.3487 h. Also, the Cmax in data set [1] (SD rats, 20 μmol/kg, intragastric administration, plasma, listed as mono-D-gluconate) was determined as 1120 ± 280 nM. In addition, the “AUC (0-t) and Cmax, comparison in words” value in data set [1] is on record as “relatively low”. In data set [2], the “water solubility at 20° C. determined by HPLC” value was 51.4 µg/mL.
With `C=C(F)C(=O)Nc1cc2c(Nc3ccc(F)c(Cl)c3)ncnc2cc1OCCCN1CCOCC1.Cl.O`, in data set [1] (setting [5]), the “AUC (0-t)” value was determined as 507.89 ± 66.81 µM·min, the “MRT (0-T)” value is 6.8127 ± 1.364 h, the time of peak concentration (Tmax) came to 1.167 ± 0.2887 h and the t1/2 worked out at 4.5078 ± 1.56 h. In addition, in data set [1] (SD rats, 20 μmol/kg, intragastric administration, plasma, listed as monohydrochloride monohydrate), the Cmax stood at 980 ± 60 nM. For the same molecule, the “AUC (0-t) and Cmax, comparison in words” value in data set [1] was “relatively low”. Also, in data set [2], the “water solubility at 20° C. determined by HPLC” value was 51.5 µg/mL.
For `C=C(F)C(=O)Nc1cc2c(Nc3ccc(F)c(Cl)c3)ncnc2cc1OCCCN1CCOCC1` [N-[4-(3-chloro-4-fluoroanilino)]-7-(3-morpholinopropoxy)-6-(2-fluoroacrylamido)-quinazoline, reference compound], in data set [1] (rat, po, 20 umol/kg, SD rats, 20 μmol/kg, intragastric administration, plasma, read-out: AUC (0-t) (converted)), the AUC (0-t) was 123 µM·min. Moreover, the MRT last in data set [1] (rat, po, 20 umol/kg, SD rats, 20 μmol/kg, intragastric administration, plasma, read-out: MRT (0-T) (converted)) is 6.66 h. Further, the Tmax in data set [1] (rat, po, 20 umol/kg, SD rats, 20 μmol/kg, intragastric administration, plasma, read-out: Tmax (converted)) was 1 h. Further, the Cmax in data set [1] (setting [6]) stood at 310 ± 70 nM. For the same molecule, the half-life in data set [1] (setting [6]) amounted to 4.28 ± 1.77 h. For the same molecule, the Number of impurities in data set [3] (0 d) was determined as 1; in data set [3] (setting [7]) it was 2; in data set [3] (setting [8]) it was 3; in data set [3] (setting [9]), 2; in data set [3] (setting [10]) it was 3; in the data set “Solution stability test” (10% aqueous acetone solution, 0 d, impurities greater than 0.05%) it was 2. For the same molecule, the Number of impurities in “Solution stability test” (setting [11]) worked out at 2; in the data set “Solution stability test” (setting [12]) it was 6; in the data set “Solution stability test” (setting [13]), 4; in the data set “Solution stability test” (B-R Buffer solution (pH=4.0), 0 d, impurities greater than 0.05%), 1; in the data set “Solution stability test” (setting [14]), 1; in “Solution stability test” (setting [15]), 4. Also, the Number of impurities turned out to be 1 in “Solution stability test” (setting [16]); 13 in the data set “Solution stability test” (setting [17]); 2 in the data set “Solution stability test” (SGF, 0 d, impurities greater than 0.05%); 2 in “Solution stability test” (SGF, 5 d, High temperature); 4 in “Solution stability test” (setting [18]); 2 in “Solution stability test” (setting [19]). Also, the Number of impurities in the data set “Solution stability test” (setting [20]) was found to be 3; in the data set “Solution stability test” (SIF, 0 d, impurities greater than 0.05%), 1; in “Solution stability test” (SIF, 5 d, High temperature) it was 2; in “Solution stability test” (setting [21]), 4; in “Solution stability test” (setting [22]), 18; in the data set “Solution stability test” (setting [23]), 5. The Purity is recorded as 99.0% in data set [3] (setting [7]); 99.0% in data set [3] (setting [8]); 99.0% in data set [3] (setting [9]); 99.0% in data set [3] (setting [10]); 93.4% in “Solution stability test” (10% aqueous acetone solution, 0 d); 83.1% in “Solution stability test” (setting [11]). Moreover, the Purity is listed as 13.3% in “Solution stability test” (setting [12]); 61.5% in the data set “Solution stability test” (setting [13]); “Complete” in “Solution stability test” (10% aqueous acetone solution, 5 d, Oxidation (3% v/v hydrogen peroxide, 25° C.)); 99.0% in the data set “Solution stability test” (B-R Buffer solution (pH=4.0), 0 d); 99.0% in the data set “Solution stability test” (setting [14]); 95.0% in the data set “Solution stability test” (setting [15]). Further, the Purity turned out to be 99.0% in the data set “Solution stability test” (setting [16]); 40.6% in the data set “Solution stability test” (setting [17]); 99.0% in the data set “Solution stability test” (SGF, 0 d); 99.0% in “Solution stability test” (SGF, 5 d, High temperature); 94.2% in the data set “Solution stability test” (setting [18]); 99.0% in “Solution stability test” (setting [19]). Further, the Purity turned out to be 84.3% in the data set “Solution stability test” (setting [20]); 88.9% in the data set “Solution stability test” (SIF, 0 d); 85.6% in “Solution stability test” (SIF, 5 d, High temperature); 81.9% in “Solution stability test” (setting [21]); 50.0% in “Solution stability test” (setting [22]); 62.7% in the data set “Solution stability test” (setting [23]).
With `C=C(F)C(=O)Nc1cc2c(Nc3ccc(F)c(Cl)c3)ncnc2cc1OCCCN1CCOCC1.O.O.O=C(O)CC(O)(CC(=O)O)C(=O)O` [crystal form 5 of the dihydrate], in data set [4] (relative humidity range of 0-80%), the “weight change (water absorbed) by DVS” value is given as 0.4%.
As for `C=C(F)C(=O)Nc1cc2c(Nc3ccc(F)c(Cl)c3)ncnc2cc1OCCCN1CCOCC1.O.O.O=C(O)CC(O)(CC(=O)O)C(=O)O` [crystal form 7 of the dihydrate], in data set [4] (relative humidity range of 10-80%), the “weight change (water absorbed) by DVS” value amounted to 0.38%.
With `C=C(F)C(=O)Nc1cc2c(Nc3ccc(F)c(Cl)c3)ncnc2cc1OCCCN1CCOCC1.O.O.O.O=C(O)CC(O)(CC(=O)O)C(=O)O` [crystal form 10 of the trihydrate], the “water eliminated by DVS” value in data set [4] (below a relative humidity of 50%) was 3.5%. In data set [4] (setting [24]), the “stability of the hydrate (DVS), in words” value was “stable” and the “weight change (water absorbed) by DVS” value is reported as 1.1%.
Consider `C=C(F)C(=O)Nc1cc2c(Nc3ccc(F)c(Cl)c3)ncnc2cc1OCCCN1CCOCC1.O.O.O=C(O)CC(O)(CC(=O)O)C(=O)O` [crystal form 11 of the dihydrate], for which, in data set [4] (setting [24]), the “stability of the hydrate (DVS), in words” value is “stable” and the “weight change (water absorbed) by DVS” value amounted to 5.3%.
With `C=C(F)C(=O)Nc1cc2c(Nc3ccc(F)c(Cl)c3)ncnc2cc1OCCCN1CCOCC1.O=C(O)CC(O)(CC(=O)O)C(=O)O` [crystal form 13 of the monocitrate], the “weight change (water absorbed) by DVS” value in data set [4] (relative humidity range of 20-80%) was 0.2%.
